Assay results from ChEMBL document CHEMBL1201862, “PubChem BioAssay data set” (2004).
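Cultured in 96-well plates, cells were exposed to test compound for 48 hours across five concentrations. GI50 is the concentration that inhibits growth by half.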 Calls of active or inactive are those of the source. Rule as the data show it: active = GI50 up to about 1.1 µM and inactive = higher.

test system: T47D; experiment: inhibition of tumour cell growth, NCI panel, 48 h

Question: How did the GI50 turn out when `COc1ccc(/C=C2\CC3C4CC=C5C[C@@H](N6CCCC6)CC[C@]5(C)C4CC[C@]3(C)[C@H]2O)cc1OC` (some centres not stated) was run?
Answer: 12.2 µM (inactive)

Question: How did the GI50 turn out when `COC(=O)c1cc2c(c3c1CC(Cc1ccccc1)C3=O)CCC2` (configuration not stated) was run?
Answer: 25.5 µM (inactive)

Question: With `COc1ccc(NC(=S)c2ccoc2C)cc1CC(=O)OC(C)C` as the molecule, how does the GI50 read?
Answer: 24.8 µM (inactive)

Question: `Cc1ccc2[nH]/c(=N/S(=O)(=O)c3cc(C)c(Cl)cc3S)[nH]c2c1` was tested. Which GI50 did it give?
Answer: 44.9 µM (inactive)

Question: `CCOC(=O)/C=C(/C(=O)OCC)n1cc(C)c(=O)n(Cc2cnnn2CCCCOC(C)=O)c1=O` was tested. Which GI50 did it give?
Answer: 24 µM (inactive)

Question: Which GI50 does the source give for `Brc1ccc2[nH]cc(-c3nc(-c4c[nH]c5ccccc45)cs3)c2c1` here?
Answer: 3.68 µM (inactive)

Question: With `COc1cc2ccc1OCc1cccc(n1)COc1ccc(cc1OC)/C=N\c1ccc(cc1)-c1ccc(cc1)/N=C\2` as the molecule, how does the GI50 read?
Answer: > 100 µM (inactive)

Question: For `CC(C)(C)C(=O)Nc1c(C=O)ccc2[nH]cnc12`, which GI50 is on record?
Answer: > 100 µM (inactive)

Question: `O=C(O)CSc1cc(-c2ccccc2)nc2ccccc12` was tested. Which GI50 did it give?
Answer: 57.9 µM (inactive)

Question: Which GI50 does the source give for `C=C1C(=O)O[C@H]2[C@H](OC(C)=O)[C@@H](C)CCC/C(C)=C/CC[C@@]3(C)O[C@@H]3C[C@@H]12` here?
Answer: 1.6 µM (inactive)

Question: With `CN(C)c1ccc(/C=C/c2nc3ccccc3s2)cc1` as the molecule, how does the GI50 read?
Answer: > 100 µM (inactive)

Question: `Cc1nc2ccccc2c(=O)n1NC(=O)c1ccc([N+](=O)[O-])cc1` was tested. Which GI50 did it give?
Answer: > 100 µM (inactive)

Question: With `COc1cc(C2C3=C(COC3=O)Oc3cc4c(cc32)OCO4)ccc1OC(C)=O` (configuration not stated) as the molecule, how does the GI50 read?
Answer: 0.565 µM (active)

Question: How did the GI50 turn out when `c1ccc(-c2cc(-c3ccccc3)nc(-c3ccncc3)c2)cc1` was run?
Answer: > 100 µM (inactive)

Question: For `[N-]=[N+]=Nc1ccccc1C(=O)N1C(=O)c2ccccc2C(=O)N(C(=O)c2ccccc2N=[N+]=[N-])c2ccccc21`, which GI50 is on record?
Answer: 23.1 µM (inactive)

Question: With `Cc1ccccc1-n1c(=O)nc2n(-c3ccc(C(C)(C)C)cc3)c3ccccc3cc-2c1=O` as the molecule, how does the GI50 read?
Answer: 26.2 µM (inactive)

Question: `COc1cc(C(c2c(O)c3ccccc3oc2=O)c2c(O)c3ccccc3oc2=O)ccc1O` was tested. Which GI50 did it give?
Answer: 17.9 µM (inactive)

Question: `C=C(Cl)[C@](Cl)(CBr)CC[C@@H](Br)C(C)(C)Cl` [HALOMON] was tested. Which GI50 did it give?
Answer: 3.18 µM (inactive)

Question: With `COc1ccc(-n2c(=O)c3nc(S)[nH]c3n(-c3ccc(OC)cc3)c2=S)cc1` as the molecule, how does the GI50 read?
Answer: > 100 µM (inactive)

Question: How did the GI50 turn out when `Cc1c2c(OCC3CCCCO3)nn(C)c(=O)c2c(C)n1-c1ccccc1` (configuration not stated) was run?
Answer: 22.1 µM (inactive)

Question: How did the GI50 turn out when `ClCCN1CCO/C1=N/c1ccc2c(c1)CCCC2` was run?
Answer: 8.51 µM (inactive)

Question: For `CCOC(=O)C(NC(=O)c1cccc(Cl)c1)(Nc1cccc(C)c1)C(F)(F)F` (configuration not stated), which GI50 is on record?
Answer: 19 µM (inactive)

Question: How did the GI50 turn out when `O=C(CN1CCOCC1)CC(O)(C(F)(F)F)C(F)(F)F` was run?
Answer: 42.4 µM (inactive)

Question: `N#Cc1nnn(C2CCCCC2)c1O` was tested. Which GI50 did it give?
Answer: > 100 µM (inactive)

Question: For `Cc1cccc2c1CC1(C2)Cc2c(C)cccc2C1=O` (configuration not stated), which GI50 is on record?
Answer: 44.8 µM (inactive)

Question: With `CC(=O)Oc1c(C)c2c(O)c3c1C1=C(OCOC1=C(C)C3=O)/C(C)=C/C(C)(O)C(O)C(C)C(O)C1C(=O)OC(C(C)C1O)C(C)(O)/C=C\C=C(C)C(=O)N2` (configuration not stated) as the molecule, how does the GI50 read?
Answer: > 100 µM (inactive)

Question: Which GI50 does the source give for `COc1cc(C(=O)Oc2c(C#N)sc3c2c(=O)n(-c2ccccc2)c(=S)n3-c2ccccc2)cc(OC)c1OC` here?
Answer: 25.5 µM (inactive)

Question: With `NC(=O)C(=O)C(c1ccccc1)S(=O)(=O)Cc1ccccc1` (configuration not stated) as the molecule, how does the GI50 read?
Answer: > 100 µM (inactive)

Question: `O=C(O)CCC(=O)Nc1ccc2ccccc2c1` was tested. Which GI50 did it give?
Answer: > 100 µM (inactive)

Question: Which GI50 does the source give for `C[n+]1c2ccccc2c(C(=O)Nc2ccc(S(=O)(=O)Nc3ccnn3-c3ccccc3)cc2)c2ccccc21` here?
Answer: > 100 µM (inactive)

Question: `CC[C@@H]1/C=C/C=C/C[C@H](C)[C@@H](O)[C@](C)(O)C(=O)[C@H](C)[C@@H](O)[C@H](C)C(=O)[C@H](C)[C@@H](O)[C@H](C)/C=C/C(=O)O[C@H]2[C@@H](C)[C@@H](CC1)O[C@]1(O[C@H](CC(C)O)[C@H](C)CC1=O)[C@@H]2C` (some centres not stated) was tested. Which GI50 did it give?
Answer: < 0.0025 µM (active)

Question: With `Cc1cc2ncn(CC(=O)O)c2cc1C` as the molecule, how does the GI50 read?
Answer: > 100 µM (inactive)

Question: With `CC(=O)C1C(=O)C(C(C)=O)C2C3C=CC(C3)C12` (configuration not stated) as the molecule, how does the GI50 read?
Answer: > 100 µM (inactive)

Question: How did the GI50 turn out when `CC(C)(C)C1=C(Br)C(F)(C(C)(C)C)OP1(=O)c1ccccc1` (configuration not stated) was run?
Answer: 15.9 µM (inactive)

Question: With `O=C1Nc2ccccc2/C1=N/Nc1ccccc1[N+](=O)[O-]` as the molecule, how does the GI50 read?
Answer: 38.5 µM (inactive)

Question: For `CC1C2CC(C/C2=N/O)C1(C)C` (configuration not stated), which GI50 is on record?
Answer: > 100 µM (inactive)

Question: Which GI50 does the source give for `O=C(O)CCN1CCN(CCC(=O)O)CCN(CCC(=O)O)CC1` here?
Answer: > 100 µM (inactive)
